Measured values taken from PMC4364341, “NBD delivery improves the disease phenotype of the golden retriever model of Duchenne muscular dystrophy” (Skeletal Muscle, 2014).

How the values were obtained:
GRMD dogs [1] = assay: Tibiotarsal joint (TTJ) tetanic force/torque, GRMD dogs; format: in vivo, dog; details: for Absolute Tetanic Extension Force / Absolute Tetanic Extension Torque / Absolute Tetanic Flexion Force / Absolute Tetanic Flexion Torque / Body-mass Corrected Tetanic Extension Force / Body-mass Corrected Tetanic Extension Torque / Body-mass Corrected Tetanic Flexion Force / Body-mass Corrected Tetanic Flexion Torque: n = 6
Method: The GRMD disease phenotype was initially determined based on elevation of serum creatine kinase and confirmed by PCR. Two cohorts of GRMD dogs were treated with a 4-month course of NBD (10 mg/kg, IV) (American Peptides; Sunnyvale, CA, USA), beginning at approximately 2 months of age. The first cohort included four GRMD (Wasabi, Pepper, Hiver, and Automne) and two wild type (Cumin and Fennel) dogs, while the second cohort included two GRMD (Peach and Kiwi) and one wild type (Mango) dog. Results were compared with those collected from 10 untreated GRMD dogs (Cilantro, Lyle, Napoleon, Summer, Jane, Cosmo, Dorothy, Toto, Hickory, and Zeke) and eight age-matched wild type littermates (Oregano, Parsley, Kip, Pedro, Pinkman, Saul, Heisenberg, and Tuco) through a parallel, but separate, natural history study in which functional, magnetic resonance imaging (MRI), and pathologic data were collected.
For all tests, dogs were anesthetized (premeds: acepromazine maleate (0.02 mg/kg), butorphanol (0.4 mg/kg), and atropine sulfate (0.04 mg/kg); masked/intubated; and maintained with sevoflurane). To assess force and eccentric contraction decrement (below), dogs were positioned in dorsal recumbence in a custom-made stereotactic frame that aligns the tibia parallel to the table at a 90° angle to the femur. The angle at which maximal joint torque is generated during isometric contractions has been termed the optimal joint angle, which is analogous to the optimal fiber length (Lo) for individual muscle force measurements. Our choice of 90° as the optimal joint angle was based on studies in which torque was measured over a range of angles. The length-tension relationship was not shifted for normal versus GRMD dogs. TTJ flexion and extension torque (N-m) was measured by a rapid-response servomotor/force transducer (model 310B LR, Aurora Scientific, Inc., Aurora, ON, Canada) controlled by a PC using custom LabView software. Either the common peroneal (TTJ flexion) or tibial (TTJ extension) nerve was stimulated using paired stimulating and reference 27-gauge monopolar electrodes placed just distal to the fibular head (common peroneal nerve) or within the gastrocnemius muscles (tibial nerve), respectively. As a result, the paw of the distal pelvic limb pulled (flexion) or pushed against (extension) a pedal affixed to a transducer, providing a measure of isometric torque. Supramaximal 150 V, 100 μs pulses were applied (Model S48 Solid State Square Wave Stimulator; Grass Instruments, Quincy, MA, USA) in a tetanic run of 250 pulses (50/s). The site of contact for the paw with the lever (moment arm) was estimated to be 75% of the distance between the point of the hock and the distal digit. Torque (Newton-meters) was divided by the moment arm (meters) to convert to force (Newtons).

GRMD dogs [2] = assay: Eccentric contraction decrement (ECD), GRMD dogs; format: in vivo, dog; details: n = 6; for ECD (1-10): after 10 contractions; for ECD (1-30): after 30 contractions
Source text: Eccentric contractions were induced by stimulating the peroneal nerve using square wave pulses of 100 μs duration in a tetanic run for 1 s at a frequency of 50 Hz while simultaneously extending the TTJ with a servomotor (Aurora Scientific, Aurora, ON, Canada). The contraction was held isometric at the optimal joint angle, expressed as Lo here (see discussion above), for the first 900 ms. For the final 100 ms, the muscles of the cranial tibial compartment were stretched by the servomotor at 0.7 Lo/s, such that the muscles were displaced to 107% of Lo. Thus, the muscles of the cranial tibial compartment were repeatedly stretched to induce mechanical damage. Three sets of 10 stretches for a total of 30, each set separated by 4 min, were performed. Contraction-induced injury was quantified by the force (torque) deficit (Fd) using the following equation: Fd = (Maximal isometric tetanic force (Po) before stretch - Po after stretch/Po before stretch) × 100.

GRMD dogs [3] = assay: Joint and pelvic angles, GRMD dogs; format: in vivo, dog; details: n = 6
Source text: We previously reported that 6-month-old GRMD dogs have abnormally acute (contracted) TTJ angles while positioned in dorsal recumbence for force measurements. Other investigators have subsequently described methods to measure joint angles at maximal flexion and extension, with associated range of motion, in wild type dogs. The method of Jaegger et al.[29] is now utilized to measure pelvic limb tibiotarsal (hock, ankle), stifle (knee), and coxofemoral (hip) joint angles for ongoing natural history and preclinical trials in our laboratory. In each case, dogs were anesthetized (above) and positioned in lateral recumbence. Angles at rest, maximal flexion, and maximal extension were measured. To objectively characterize the cranioventral shift of the pelvis typically seen in GRMD dogs, we also measured the pelvic angle formed by two lines extending cranially from the tuber ischium, one drawn parallel to the lumbar spine and the other extending to the midpoint of the tuber coxae.

wild type and GRMD dogs = details: dog, in vivo
Method: NBD peptide (TALDWSWLQTE) fused to an Antennapedia protein transduction domain [9] was generated using an ABI 430A solid-phase peptide synthesizer (Applied Biosystems, Foster City, CA, USA) as previously described. NBD solutions (10 mg/mL) for the canine studies were prepared weekly. Needed volumes were calculated based on the current dog body weights, plus estimated weekly gain averages. Compound was weighed on a laboratory balance to the nearest 0.1 g and reconstituted in sterile water. Solution was then sterile-filtered through 0.22 μm filters into a sterile fluid administration bag and refrigerated at 4°C until use. […] Heart and respiratory rate, mucous membrane color, capillary refill time, and body temperature were monitored throughout the perfusion. […] The syringe pump was initially programed to administer the calculated volume over 10 min, but this was extended to 30 min when reactions were seen. Blood pressure was recorded prior to start of perfusion, at 5-min intervals throughout perfusion, and post-perfusion (Cardell® 9405 Multiparameter Monitor, Midmark Corporation, Versailles, OH, USA). Dogs were monitored for adverse reactions throughout the perfusion and for up to 30 min after completion.

[4] = NBD group, age 2 months (start of treatment)
[5] = age 6 months, NBD 10 mg/kg IV 3x weekly for 4 months

TALDWSWLQTE [NBD, NBD peptide (…) fused to an Antennapedia protein transduction domain]
Absolute Tetanic Extension Force (GRMD dogs [1]; [4]): 7.50 ± 2.09 N | Absolute Tetanic Extension Torque (GRMD dogs [1]; [4]): 0.62 ± 0.16 Nm | Absolute Tetanic Flexion Force (GRMD dogs [1]; [4]): 2.05 ± 0.58 N | Absolute Tetanic Flexion Torque (GRMD dogs [1]; [4]): 0.17 ± 0.06 Nm | Body-mass Corrected Tetanic Extension Force (GRMD dogs [1]; [4]): 2.11 ± 0.70 N/kg | Body-mass Corrected Tetanic Extension Torque (GRMD dogs [1]; [4]): 0.21 ± 0.07 Nm/kg | Body-mass Corrected Tetanic Flexion Force (GRMD dogs [1]; [4]): 0.57 ± 0.15 N/kg | Body-mass Corrected Tetanic Flexion Torque (GRMD dogs [1]; [4]): 0.05 ± 0.01 Nm/kg | Absolute Tetanic Extension Force (GRMD dogs [1]; [5]): 34.30 ± 9.65^1**,2 N | Absolute Tetanic Extension Torque (GRMD dogs [1]; [5]): 4.55 ± 1.49^1**,2 Nm | Absolute Tetanic Flexion Force (GRMD dogs [1]; [5]): 6.79 ± 1.13^1 N | Absolute Tetanic Flexion Torque (GRMD dogs [1]; [5]): 0.89 ± 0.18^1 Nm | Body-mass Corrected Tetanic Extension Force (GRMD dogs [1]; [5]): 2.70 ± 0.65^2 N/kg | Body-mass Corrected Tetanic Extension Torque (GRMD dogs [1]; [5]): 0.36 ± 0.08^1*,2 Nm/kg | Body-mass Corrected Tetanic Flexion Force (GRMD dogs [1]; [5]): 0.55 ± 0.13 N/kg | Body-mass Corrected Tetanic Flexion Torque (GRMD dogs [1]; [5]): 0.07 ± 0.02^1 Nm/kg | Increase in extension force vs untreated GRMD dogs (GRMD dogs [1]; pelvic limb, body-mass corrected, NBD 10 mg/kg IV 3x weekly for 4 months, P = 0.038): 73% | ECD (1-10) (GRMD dogs [2]; [4]): 16.12 ± 5.88% | ECD (1-10) (GRMD dogs [2]; [5]): 32.04 ± 13.46% | ECD (1-30) (GRMD dogs [2]; [4]): 38.67 ± 10.34% | ECD (1-30) (GRMD dogs [2]; [5]): 54.48 ± 13.64% | Hip (Resting) angle (GRMD dogs [3]; [4]): 103.7 ± 2.94 | Maximum Hip Flexion (GRMD dogs [3]; [4]): 44.67 ± 5.47 ° | Pelvic Angle (GRMD dogs [3]; [4]): 41.00 ± 6.81 ° | TTJ Angle (GRMD dogs [3]; [4]): 157.00 ± 9.80 ° | Hip (Resting) angle (GRMD dogs [3]; [5]): 100.2 ± 6.01^2 | Maximum Hip Flexion (GRMD dogs [3]; [5]): 46.33 ± 3.50^2 ° | Pelvic Angle (GRMD dogs [3]; [5]): 36.83 ± 5.12^2 ° | TTJ Angle (GRMD dogs [3]; [5]): 160.17 ± 8.84 ° | Blood pressure during administration (wild type and GRMD dogs): decreased | Onset of infusion reactions (time of treatment) (wild type and GRMD dogs; iv, 10 mg/kg): approximately 1 month
